Assay results as given in patent publication US20260015363A1, “SUBSTITUTED PYRIMIDINE-FUSED RING INHIBITOR, METHOD FOR PREPARING SAME, AND USE THEREOF” (Suzhou Zelgen Biopharmaceuticals Co., Ltd., priority 2022, published 2026).
pIC50: −log10 of the molar value. Where a name gives a salt, the structure may show the parent alone.

Assays:
AsPC-1 (G12D) = assay: KRAS mutant cell proliferation inhibition assay (CellTiter-Glo 3D), AsPC-1; type: cell-based, human; conditions: AsPC-1 (G12D) cells, 7 days
Method: (§1) Positive control: MRTX1133
(§2) • (a) The cells were thawed in T75 cell culture flasks: • (b) When 80%-90% cell confluence was achieved, the cells were passaged.
(§3) The diluted test compound was added to a 384-well cell culture plate using a nanoliter pipetting system, and replicate wells were set. An equal volume of medium was added to the positive control group; an equal volume of DMSO was added to the negative control group. The plate was centrifuged at 1000 rpm at room temperature for 1 min.
(§4) The cells were seeded into a) 384-well culture plate. An equal volume of cells was added to the negative control group, and only an equal volume of medium was added to the positive control group. The plate was centrifuged at 1000 rpm at room temperature for 1 min. The final DMSO concentration in the final compound was 0.5%. The plate was incubated in a thermostatic incubator at 37° C. with 5% CO2 for 7 days.
(§5) CellTiter-Glo® 3D was added to b) 384-well cell culture plate at 20 μL/well. The plate was shaken at 320 rpm in the dark for 20 min, and incubated at room temperature in the dark for 2 h. The luminescence values were read using an Envision multi-mode microplate reader.
(§6) The inhibition rates (IRs) of the test compounds were calculated according to the following formula: IR (%)=(1−(RLU compound−RLU blank control)/(RLU vehicle control−RLU blank control))×100%. The inhibition rates of the compounds at different concentrations were calculated in Excel, and then inhibition curves were plotted and relevant parameters including minimum inhibition rate, maximum inhibition rate and IC50 were calculated using GraphPad Prism software.

SW480 (G12V) = assay: KRAS mutant cell proliferation inhibition assay (CellTiter-Glo 3D), SW480; type: cell-based; conditions: SW480 (G12V) cells, 7 days
Method: as §1, §2, §3, §4, §5, §6

Compound	pIC50 (SW480 (G12V); Homo sapiens, 168 h)	pIC50 (AsPC-1 (G12D); Homo sapiens, ASPC1, 168 h)	also measured
CCc1c(F)ccc2cc(O)cc(-c3ncc4c(N5CCC[C@@]6(CCO6)C5)nc(OC[C@@]56CCCN5C[C@@]5(CC5(F)F)C6)nc4c3F)c12 [Example A-16A, 4-(2-(((15,7a'S)-2,2-difluorodihydro-1′H,3′H-spiro[cyclopropane-1,2′-pyrrolizin]-7a′ (5′H)-yl)methoxy)-8-fluoro-4-((R)-1-oxa-6-azaspiro[3.5]nonan-6-yl)pyrido[4,3-d]pyrimidin-7-yl)-5-ethyl-6-fluoronaphthalen-2-ol]	–	–	pIC50 (AsPC-1 (G12D)): 8.24; pIC50 (SW480 (G12V)): 7.96
CCc1c(F)ccc2cc(O)cc(-c3ncc4c(N5CCOCC(F)(F)C5)nc(OC[C@@]56CCCN5C[C@@]5(CC5(F)F)C6)nc4c3F)c12 [Example A-35, 4-(4-(6,6-Difluoro-1,4-oxazepan-4-yl)-2-(((1.S,7a'S)-2,2-difluorodihydro-1′H,3′H-spiro[cyclopropane-1,2′-pyrrolizin]-7a′ (5′H)-yl)methoxy)-8-fluoropyrido[4,3-d]pyrimidin-7-yl)-5-ethyl-6-fluoronaphthalen-2-ol]	6.80	–	–
CC(C1CC1)N(C)c1nc(OC[C@@]23CCCN2C[C@@]2(CC2(F)F)C3)nc2c(F)c(-c3cc(N)cc(Cl)c3C(F)(F)F)ncc12 (stereo partly shown) [Example A-43, 7-(5-Amino-3-chloro-2-(trifluoromethyl)phenyl)-N-(1-cyclopropylethyl)-2-(((1.S,7a'S)-2,2-difluorodihydro-1′H,3′H-spiro[cyclopropane-1,2′-pyrrolizin]-7a′ (5′H)-yl)methoxy)-8-fluoro-N-methylpyrido[4,3-d]pyrimidin-4-amine trifluoroacetate]	–	6.01	–
CCc1c(F)ccc2cc(O)cc(-c3ncc4c(N5CCOCCC5C)nc(OC[C@@]56CCCN5C[C@@]5(CC5(F)F)C6)nc4c3F)c12 (stereo partly drawn) [Example A-37, 4-(2-(((1S,7a'S)-2,2-Difluorodihydro-1′H,3′H-spiro[cyclopropane-1,2′-pyrrolizin]-7a′ (5′H)-yl)methoxy)-8-fluoro-4-(5-methyl-1,4-oxazepan-4-yl)pyrido[4,3-d]pyrimidin-7-yl)-5-ethyl-6-fluoronaphthalen-2-ol]	6.51	6.24	–
C#Cc1c(F)ccc2cc(O)cc(-c3ncc4c(N(C)[C@H]5C[C@@H]5F)nc(OC[C@@]56CCCN5C[C@@]5(CC5(F)F)C6)nc4c3F)c12 [Example A-44, 4-(2-(((15,7a'S)-2,2-Difluorodihydro-1′H,3′H-spiro[cyclopropane-1,2′-pyrrolizin]-7a′ (5′H)-yl)methoxy)-8-fluoro-4-(((trans)-2-fluorocyclopropyl)(methyl)amino)pyrido[4,3-d]pyrimidin-7-yl)-5-ethynyl-6-fluoronaphthalen-2-ol]	8.15	7.60	–
CCc1c(F)ccc2cc(O)cc(-c3ncc4c(N(C)C5CC5)nc(OC[C@@]56CCCN5C[C@@]5(CC5(F)F)C6)nc4c3F)c12 [Example A-40, 4-(4-(Cyclopropyl(methyl)amino)-2-(((1S,7a'S)-2,2-difluorodihydro-1′H,3′ H-spiro[cyclopropane-1,2′-pyrrolizin]-7a′ (5′H)-yl)methoxy) 8-fluoropyrido[4,3-d]pyrimidin-7-yl)-5-ethyl-6-fluoronaphthalen-2-ol]	–	< 6.00	–
C#Cc1c(F)ccc2cc(O)cc(-c3ncc4c(N5CCCOC6CC65)nc(OC[C@@]56CCCN5C[C@@]5(CC5(F)F)C6)nc4c3F)c12 (stereo partly drawn) [Example A-29, 4-(4-((cis)-2-Oxa-6-azabicyclo[5.1.0]octan-6-yl)-2-(((1,5,7a'S)-2,2-difluorodihydro-1′H,3′H-spiro[cyclopropane-1,2′-pyrrolizin]-7a′ (5′H)-yl)methoxy)-8-fluoropyrido[4,3-d]pyrimidin-7-yl)-5-ethynyl-6-fluoronaphthalen-2-ol]	8.68	8.31	–
CCc1c(F)ccc2cc(O)cc(-c3ncc4c(N5CCCCC(F)C5)nc(OC[C@@]56CCCN5C[C@@]5(CC5(F)F)C6)nc4c3F)c12 (stereo partly drawn) [Example A-36, 4-(2-(((1S,7a'S)-2,2-Difluorodihydro-1′H,3′H-spiro[cyclopropane-1,2′-pyrrolizin]-7a′ (5′H)-yl)methoxy)-8-fluoro-4-(3-fluoroazepan-1-yl)pyrido[4,3-d]pyrimidin-7-yl)-5-ethyl-6-fluoronaphthalen-2-ol]	6.99	–	–
CCc1c(F)ccc2cc(O)cc(-c3ncc4c(N5CC6COC(C6)C5)nc(OC[C@@]56CCCN5C[C@@]5(CC5(F)F)C6)nc4c3F)c12 (stereo partly shown) [Example A-33]	6.77	–	–
CCc1c(F)ccc2cc(O)cc(-c3ncc4c(N5CC6(CCO6)C5)nc(OC[C@@]56CCCN5C[C@@]5(CC5(F)F)C6)nc4c3F)c12 [Example A-23, 4-(2-(((1S,7a'S)-2,2-Difluorodihydro-1′H,3′H-spiro[cyclopropane-1,2′-pyrrolizin]-7a′ (5′H)-yl)methoxy)-8-fluoro-4-(1-oxa-6-azaspiro[3.4]heptan-6-yl)pyrido[4,3-d]pyrimidin-7-yl)-5-ethyl-6-fluoronaphthalen-2-ol]	–	< 6.00	–
CN(C)C(=O)c1cc2n(n1)CCCN(c1nc(OC[C@@]34CCCN3C[C@@]3(CC3(F)F)C4)nc3c1CCN(c1ccc(F)c4sc(N)c(C#N)c14)C3)C2 [Example B-15, 5-(7-(2-Amino-3-cyano-7-fluorobenzo[b]thiophen-4-yl)-2-(((trans)-2,2-fluorodihydro-1′H,3′H-spiro[cyclopropane-1,2′-pyrrolizin]-7a′ (5′H)-yl)methoxy)-5,6,7,8-tetrahydropyrido[3,4-d]pyrimidin-4-yl)-N,N-dimethyl-5,6,7,8-tetrahydro-4H-pyrazolo[1,5-a][1,4]diazepine-2-carboxamide]	–	< 6.00	–
CN(C)C(=O)c1cc2n(n1)CCCN(c1nc(OC[C@]34CCCN3C[C@]3(CC3(F)F)C4)nc3c1CCN(c1cccc4ccc(F)c(Cl)c14)C3)C2 [Example B-16, 5-(7-(8-Chloro-7-fluoronaphthalen-1-yl)-2-(((trans)-2,2-2,2-fluorodihydro-1′H,3′H-spiro[cyclopropane-1,2′-pyrrolizin]-7a′ (5′H)-yl)methoxy)-5,6,7,8-tetrahydropyrido[3,4-d]pyrimidin-4-yl)-N,N-dimethyl-5,6,7,8-tetrahydro-4H-pyrazolo[1,5-a][1,4]diazepine-2-carboxamide]	–	< 6.00	–
CCc1c(F)ccc2cc(O)cc(-c3ncc4c(N(C)C(C)C5CC5)nc(OC[C@@]56CCCN5C[C@@]5(CC5(F)F)C6)nc4c3F)c12 (stereo partly shown) [Example A-42, 4-(4-((1-Cyclopropylethyl)(methyl)amino)-2-(((15,7a'S)-2,2-difluorodihydro-1′H,3′H-spiro[cyclopropane-1,2′-pyrrolizin]-7a′ (5′H)-yl)methoxy)-8-fluoropyrido[4,3-d]pyrimidin-7-yl)-5-ethyl-6-fluoronaphthalen-2-ol trifluoroacetate]	–	< 6.00	–
CN(c1nc(OC[C@@]23CCCN2C[C@@]2(CC2(F)F)C3)nc2c(F)c(-c3cc(N)cc(Cl)c3C(F)(F)F)ncc12)C1CC1 [Example A-41, 7-(5-Amino-3-chloro-2-(trifluoromethyl)phenyl)-N-cyclopropyl-2-(((1S,7a'S)-2,2-difluorodihydro-1′H,3′H-spiro[cyclopropane-1,2′-pyrrolizin]-7a′ (5′H)-yl)methoxy)-8-fluoro-N-methylpyrido[4,3-d]pyrimidin-4-amine]	–	< 6.00	–
Nc1cc(Cl)c(C(F)(F)F)c(-c2ncc3c(N4CC5COC(C5)C4)nc(OC[C@@]45CCCN4C[C@@]4(CC4(F)F)C5)nc3c2F)c1 (stereo partly drawn) [Example A-32, 3-(4-(6-Oxa-3-azabicyclo[4.2.1]nonan-3-yl)-2-(((1S,7a'S)-2,2-difluorodihydro-1′H,3′H-spiro[cyclopropane-1,2′-pyrrolizin]-7a′ (5′H)-yl)methoxy)-8-fluoropyrido[4,3-d]pyrimidin-7-yl)-5-chloro-4-(trifluoromethyl)aniline]	6.47	–	–
CCc1c(F)ccc2cc(O)cc(-c3ncc4c(N5CCC6(CCO6)C5)nc(OC[C@@]56CCCN5C[C@@]5(CC5(F)F)C6)nc4c3F)c12 (stereo partly shown) [Example A-22, 4-(2-(((1.S,7a'S)-2,2-Difluorodihydro-1′H,3′H-spiro[cyclopropane-1,2′-pyrrolizin]-7a′ (5′H)-yl)methoxy)-8-fluoro-4-(1-oxa-6-azaspiro[3.4]octan-6-yl)pyrido[4,3-d]pyrimidin-7-yl)-5-ethyl-6-fluoronaphthalen-2-ol]	–	< 6.00	–
CCc1c(F)ccc2cc(O)cc(-c3ncc4c(N5CCC6(COC6)C5)nc(OC[C@@]56CCCN5C[C@@]5(CC5(F)F)C6)nc4c3F)c12 [Example A-21, 4-(2-(((1S,7a'S)-2,2-Difluorodihydro-1′H,3′H-spiro[cyclopropane-1,2′-pyrrolizin]-7a′ (5′H)-yl)methoxy)-8-fluoro-4-(2-oxa-6-azaspiro[3.4]octan-6-yl)pyrido[4,3-d]pyrimidin-7-yl)-5-ethyl-6-fluoronaphthalen-2-ol]	–	< 6.00	–
CCc1c(F)ccc2cc(O)cc(-c3ncc4c(N5CCOCC(F)C5)nc(OC[C@@]56CCCN5C[C@@]5(CC5(F)F)C6)nc4c3F)c12 (stereo partly drawn) [Example A-34, 4-(2-(((1S,7a'S)-2,2-Difluorodihydro-1′H,3′H-spiro[cyclopropane-1,2′-pyrrolizin]-7a′ (5′H)-yl)methoxy)-8-fluoro-4-(6-fluoro-1,4-oxazepan-4-yl)pyrido[4,3-d]pyrimidin-7-yl)-5-ethyl-6-fluoronaphthalen-2-ol]	7.18	–	–
